This is an account of results in the supplement of paper PMC9663587.

The structures appear in SMILES notation.

Test systems include MCF10A (GM); PDX1206; HCC1428; HCC1500; MDAMB157.
Holding throughout (assay): GRmax, 72 h; higher = less effect;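 also: breast cell lines in 384-well plates, nine doses across a 10^4 range, Dye Drop imaging of viable cells vs DMSO and time-zero plates, GR 0 means no net growth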

Regarding `CNc1nc(-c2ccc3c(N)n[nH]c3c2)cc(N2C[C@@H](C(=O)NC3CCCCC3)CC[C@H]2C)n1` (max 10 µM), the figures for the “GRmax, 72 h” value in the test on MCF10A (GM) and in the test with PDX1206 were 0.857 GR and 0.295 GR, respectively.

For the compound `CN(C)C/C=C/C(=O)Nc1ccc(C(=O)Nc2cccc(Nc3cc(-c4c[nH]c5ccccc45)ncn3)c2)cc1` [THZ-P1-2] (max 10 µM), the “GRmax, 72 h” value was -0.164 GR in the test on MCF10A (GM) and 0.857 GR in the test on PDX1206.

Consider `NC1(C(=O)N[C@@H](CCO)c2ccc(Cl)cc2)CCN(c2nc[nH]c3nccc2-3)CC1` [AZD5363] (max 10 µM), for which the “GRmax, 72 h” value in the test with MCF10A (GM) came out at 0.641 GR; with PDX1206, 0.397 GR.

Consider `CN(C)C/C=C/C(=O)Nc1ccc(C(=O)N2CCC[C@@H](Nc3ncc(Cl)c(-c4c[nH]c5ccccc45)n3)C2)cc1` [THZ531] (max 1 µM), for which the results for the “GRmax, 72 h” value in the test with MCF10A (GM) and in the test with PDX1206 were -0.28 GR and -0.312 GR, respectively.

Regarding `CN(C)C(=O)c1cc2cnc(Nc3ccc(N4CCNCC4)cn3)nc2n1C1CCCC1` [LEE011/Ribociclib] (max 10 µM), the “GRmax, 72 h” value was found to be 0.519 GR in the test on MCF10A (GM) and 0.713 GR in the test on PDX1206.

In the case of `COc1ccc2c(c1)[C@]1(C[C@H]1c1ccc3c(/C=C/c4ccc(CN5C[C@@H](C)O[C@@H](C)C5)cc4)n[nH]c3c1)C(=O)N2`, the “GRmax, 72 h” value turned out to be 0.0912 GR with MCF10A (GM) and 0.0507 GR with PDX1206.

In the case of `CC(C)Nc1cc(-c2c[nH]c(C(=O)N[C@H](CO)c3cccc(Cl)c3)c2)c(Cl)cn1` [BVD523] (max 10 µM), the results for the “GRmax, 72 h” value with MCF10A (GM) and in the test with PDX1206 were 0.225 GR and 0.564 GR, respectively.

With `CCC(=O)Nc1ccc(C(=O)Nc2ccc(Nc3ncc4c(n3)N(C)c3ccc(C)cc3C(=O)N4C)cc2)cc1` [FMF-03-145-1], the “GRmax, 72 h” value in the test with MCF10A (GM) stood at 0.0984 GR; in the test on PDX1206, 0.128 GR.

Consider `C=CCn1c(=O)c2cnc(Nc3ccc(N4CCN(C)CC4)cc3)nc2n1-c1cccc(C(C)(C)O)n1` [AZD1775] (max 10 µM), for which the “GRmax, 72 h” value in the test with MCF10A (GM) was 0.0319 GR; with PDX1206, -0.308 GR.

Consider `CCCCOc1c(C(=O)c2c(F)cc(C)cc2F)c[nH]c2nncc1-2` (max 10 µM), for which the results for the “GRmax, 72 h” value in the test with MCF10A (GM) and in the test with PDX1206 were 0.106 GR and 0.123 GR, respectively.

As for `C[C@@H]1COCCN1c1cc(C2([S@](C)(=N)=O)CC2)nc(-c2cc[nH]c3nccc2-3)n1` [AZD6738] (max 10 µM), the “GRmax, 72 h” value with MCF10A (GM) amounted to 0.226 GR; with PDX1206 it was 0.141 GR.

On to `CNCc1ccc(-c2[nH]c3cc(F)cc4c3c2CCNC4=O)cc1` [Rucaparib] (max 10 µM), for which the “GRmax, 72 h” value stood at 0.882 GR with MCF10A (GM) and 0.586 GR in the test on PDX1206.

Consider `C=CC(=O)Nc1ccc(C(=O)Nc2[nH]nc3c2CN(C(=O)N[C@H](CN(C)C)c2ccccc2)C3(C)C)cc1` [YKL-5-124] (max 10 µM), for which the “GRmax, 72 h” value was -0.141 GR in the test on MCF10A (GM) and -0.513 GR with PDX1206.

For the compound `CC(=O)c1c(C)c2cnc(Nc3ccc(N4CCN(CCOCCOCCOCCNC(=O)COc5cccc6c5C(=O)N(C5CCC(=O)NC5=O)C6=O)CC4)cn3)nc2n(C2CCCC2)c1=O` (stereo not drawn) [BSJ-03-123] (max 10 µM), the “GRmax, 72 h” value is -0.17 GR in the test on MCF10A (GM) and -0.138 GR with PDX1206.

On to `CN(C)C/C=C/C(=O)Nc1ccc(O[C@@H]2CCC[C@@H](Nc3ncc(Cl)c(-c4c[nH]c5ccccc45)n3)C2)cc1` [BSJ-01-175] (max 10 µM), for which the “GRmax, 72 h” value in the test with MCF10A (GM) was -0.356 GR; with PDX1206 it was -0.936 GR.

Regarding `CN1CC[C@H](c2c(O)cc(O)c3c(=O)cc(-c4ccccc4Cl)oc23)[C@H](O)C1` [Flavopiridol] (max 1 µM), the “GRmax, 72 h” value is -0.307 GR in the test with MCF10A (GM) and -0.566 GR with PDX1206.

Regarding `COc1cc(N2CCN(C)CC2)ccc1Nc1ncc2c(n1)N(C)c1ccccc1C(=O)N2CC(F)(F)F` [FMF-03-146-1], the figures for the “GRmax, 72 h” value in the test with MCF10A (GM) and with PDX1206 were 0.977 GR and 0.966 GR, respectively.

Consider `CO[C@@H](C)Cn1c(=O)n(C)c2cnc3ccc(-c4cncc(C(C)(C)O)c4)cc3c21` (max 10 µM), for which the “GRmax, 72 h” value in the test with MCF10A (GM) was 0.0552 GR; in the test with PDX1206, -0.404 GR.

Take `CN(C)C/C=C/C(=O)Nc1ccc(C(=O)Nc2cccc(Nc3ncc(Cl)c(-c4c[nH]c5ccccc45)n3)c2)cc1` [THZ1] (max 1 µM): the entries for the “GRmax, 72 h” value in the test with MCF10A (GM) and in the test on PDX1206 were -0.267 GR and -0.522 GR, respectively.

In the case of `CN1CCN(C(=O)c2ccc3cc(CCNc4ncnc5ccc(C#N)cc45)ccc3c2)CC1` [senexin b] (max 10 µM), the “GRmax, 72 h” value was determined as 0.893 GR in the test on MCF10A (GM) and 0.223 GR with PDX1206.

As to `CC1(N)CCN(c2cnc(-c3cccc(Cl)c3Cl)c(N)n2)CC1` [SHP099] (max 10 µM), the “GRmax, 72 h” value in the test on MCF10A (GM) worked out at 0.738 GR; with PDX1206, 0.7 GR.

Turning to `CNC(=O)c1cccc(-c2ccc3c(N4CCOC[C@@H]4C)nc(N4CCOC[C@@H]4C)nc3n2)c1` [AZD2014] (max 10 µM), the “GRmax, 72 h” value with MCF10A (GM) came to 0.211 GR; in the test with PDX1206 it was 0.14 GR.

For `O=C(c1cc(Cc2n[nH]c(=O)c3ccccc23)ccc1F)N1CCN(C(=O)C2CC2)CC1` [Olaparib/AZD2281] (max 10 µM), the entries for the “GRmax, 72 h” value in the test with HCC1428, in the test with HCC1500 and in the test with MDAMB157 were 0.118 GR, 0.274 GR and 0.158 GR, respectively.

`O=C1NC(=NCc2cccs2)SC1=Cc1ccc2ncccc2c1` [R0-3306] (max 10 µM): the “GRmax, 72 h” value with MCF10A (GM) was -0.0351 GR; in the test on PDX1206, 0.0387 GR.

Regarding `CC(C)n1nc(-c2ccc3oc(N)nc3c2)c2c(N)ncnc21` [INK128/MLN0128] (max 3.162 µM), the “GRmax, 72 h” value in the test on HCC1428 is -0.0001 GR; in the test on HCC1500, -0.469 GR; in the test on MDAMB157, -0.0331 GR.

Turning to `Nc1cc(C(F)(F)F)c(-c2cc(N3CCOCC3)nc(N3CCOCC3)n2)cn1` [Buparlisib/NVP-BKM120] (max 10 µM), the “GRmax, 72 h” value was -0.265 GR in the test on HCC1428, -0.546 GR in the test on HCC1500 and -0.641 GR in the test with MDAMB157.

For the compound `COc1cccc(OCCCN)c1-c1cc(Nc2cnc(C#N)cn2)n[nH]1`, the entries for the “GRmax, 72 h” value in the test on MCF10A (GM) and in the test with PDX1206 were 0.322 GR and -0.497 GR, respectively.

Regarding `N.N.[Cl][Pt][Cl]` [Cisplatin] (max 10 µM), the “GRmax, 72 h” value in the test on HCC1428 is 0.122 GR; in the test with HCC1500, 0.207 GR; in the test on MDAMB157, 0.189 GR.

As for `Cc1nn(C)c(COc2ccc(N3CCN(S(=O)(=O)N(C)C)CC3)cc2)c1-c1cccc2c(CCCOc3cccc4ccccc34)c(C(=O)O)n(CCN3CCOCC3)c12` (max 10 µM), the “GRmax, 72 h” value in the test with HCC1428 was determined as 0.816 GR; with HCC1500, 0.872 GR; with MDAMB157, 0.788 GR.
